These results are taken from PMC11997890, “In Vivo and In Vitro Pharmacokinetic Studies of a Dual Topoisomerase I/II Inhibitor” (ACS Pharmacology & Translational Science, 2025).

Holding throughout (format): in vitro ADME
One series addresses human FMO3 (Homo sapiens, UniProt P31513). Put plainly: Conversion of P8-D6 by recombinant FMO3. Conditions: seven recombinant CYP isoenzymes and human FMO3. The method, then:
P8-D6 N-oxide was the most common metabolite for all incubations with subcellular fractions from the homogenized tissue. According to the detected MS-MS fragments (supplied as Supporting Information Chapter 2), it resulted from N-oxygenation of the nitrogen at the side chain since the unmodified fragment of P8-DO (m/z = 414.1) was detected. Furthermore, the detected fragment at m/z = 440.1 is most likely a carbocation at the remaining ethyl chain after splitting off the dimethylamine N-oxide further strengthening the theory of selectively forming this specific N-oxide. In addition, no relevant chemical shifts in the aromatic range of the ^1H NMR compared to P8-D6 and mono were observed (supplied as Supporting Information Chapter 2). Thus, no chemical modifications can have occurred on the aromatic rings, and all changes must therefore affect the side chain. […] To determine which enzymes were responsible for the conversion, seven recombinant CYP 450 isoenzymes recommended by the FDA’s “Guidance for Industry” and human FMO3 were used.
For all phase I metabolism studies (except cell cultures), a 0.3 mL reaction mixture consisting of 1 mM substrate (P8-D6, P8-D6 mono, P8-D6 N-oxide), 1 mM NADPH as a cofactor, 0.67 mg/mL protein from homogenized tissue or subcellular fractions, respectively (except recombinant enzymes, where 0.5 mg/mL was used), and PBS buffer (pH 7.4) was used. […]

The next series addresses T1, CYP2B6 (Homo sapiens, UniProt P20813).
T1 construct: host or cells: human liver microsomes (one value) / recombinant CYP enzyme (other value)
Put plainly: In vitro CYP inhibition, marker substrate bupropion. The method, then: (§1) To assess metabolizing enzyme-mediated drug interactions, P8-D6 was incubated with human liver (HLM) or recombinant CYP enzymes and the respective marker substrate according to the FDA (with the exception of using amitriptyline instead of S-mephenytoin). −
(§2) However, as some conversions were catalyzed by several enzymes, the conversion rates in HLM increased (e.g., bupropion and diclofenac).
(§3) To examine a possible in vitro CYP inhibition, the following CYP enzymes and marker substrates were investigated according to the FDA: , phenacetin (CYP1A2), bupropion (CYP2B6), amodiaquine (CYP2C8), diclofenac (CYP2C9), amitriptyline (CYP2C19), dextromethorphan (CYP2D6), testosterone (CYP3A4), and nifedipine (CYP3A4). Incubation was performed in a 0.2 mL reaction mix consisting of PBS buffer (pH 7.4), 1 mM marker substrate, 1 mM NADPH, and either 0.5 mg/mL recombinant CYP enzyme or human liver microsomes. P8-D6 was added for a final concentration of 0.5 μM, 1 μM, 5 μM, 10 μM, 25 μM, 50 μM, 100 μM, 500 μM, 1000 μM, and (in some cases) 5000 μM. Sample preparation was performed according to in vitro biotransformation.

Another series concerns the target T2, CYP2C8 (Homo sapiens, UniProt P10632).
T2 construct: host or cells: human liver microsomes (one value) / recombinant CYP enzyme (other value)
The series can be described thus: In vitro CYP inhibition, marker substrate amodiaquine. As to the method: as §1, §2, §3

Some results are limits rather than exact numbers.

T2 sequence (P10632 whole entry): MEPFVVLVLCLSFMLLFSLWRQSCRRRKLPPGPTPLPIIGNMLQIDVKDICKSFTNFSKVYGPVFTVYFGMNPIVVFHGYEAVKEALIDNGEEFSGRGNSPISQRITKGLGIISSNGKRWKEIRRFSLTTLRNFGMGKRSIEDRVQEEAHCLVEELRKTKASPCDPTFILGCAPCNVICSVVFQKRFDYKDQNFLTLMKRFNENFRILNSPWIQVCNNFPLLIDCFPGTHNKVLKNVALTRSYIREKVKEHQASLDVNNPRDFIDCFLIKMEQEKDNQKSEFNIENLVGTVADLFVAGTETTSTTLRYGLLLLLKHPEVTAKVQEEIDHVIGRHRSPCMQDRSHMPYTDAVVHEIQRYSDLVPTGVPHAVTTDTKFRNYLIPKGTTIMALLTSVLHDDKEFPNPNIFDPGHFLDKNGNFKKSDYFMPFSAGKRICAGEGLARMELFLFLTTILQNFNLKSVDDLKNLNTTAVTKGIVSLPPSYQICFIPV
T1 sequence (P20813 whole entry): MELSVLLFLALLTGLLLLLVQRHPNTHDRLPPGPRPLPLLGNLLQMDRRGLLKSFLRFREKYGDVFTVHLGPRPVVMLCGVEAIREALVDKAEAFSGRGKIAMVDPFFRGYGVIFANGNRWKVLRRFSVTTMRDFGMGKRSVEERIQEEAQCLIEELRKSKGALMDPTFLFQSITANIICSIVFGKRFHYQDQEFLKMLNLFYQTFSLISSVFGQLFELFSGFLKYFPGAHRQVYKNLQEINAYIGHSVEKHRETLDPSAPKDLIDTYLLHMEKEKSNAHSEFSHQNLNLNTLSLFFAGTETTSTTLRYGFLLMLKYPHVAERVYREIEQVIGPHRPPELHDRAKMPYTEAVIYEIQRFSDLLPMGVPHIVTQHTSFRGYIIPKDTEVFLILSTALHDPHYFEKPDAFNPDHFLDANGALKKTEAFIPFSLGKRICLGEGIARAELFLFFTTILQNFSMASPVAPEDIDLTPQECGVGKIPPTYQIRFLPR
Chain of human FMO3 (P31513 whole entry, the tested form may be a part): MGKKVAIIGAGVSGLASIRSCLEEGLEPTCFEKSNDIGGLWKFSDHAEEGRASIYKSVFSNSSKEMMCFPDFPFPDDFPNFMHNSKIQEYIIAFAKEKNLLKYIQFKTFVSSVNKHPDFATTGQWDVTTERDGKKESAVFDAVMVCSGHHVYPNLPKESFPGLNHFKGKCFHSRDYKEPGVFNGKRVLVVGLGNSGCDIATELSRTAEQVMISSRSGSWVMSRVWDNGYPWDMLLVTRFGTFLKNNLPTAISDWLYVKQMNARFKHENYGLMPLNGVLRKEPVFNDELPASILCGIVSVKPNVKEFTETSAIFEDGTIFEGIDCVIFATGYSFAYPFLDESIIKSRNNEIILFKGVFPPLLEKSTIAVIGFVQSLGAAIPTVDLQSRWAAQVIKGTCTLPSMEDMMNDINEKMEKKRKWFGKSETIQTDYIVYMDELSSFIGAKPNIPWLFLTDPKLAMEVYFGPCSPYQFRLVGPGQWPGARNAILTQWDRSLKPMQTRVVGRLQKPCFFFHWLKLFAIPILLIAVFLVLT

As for `COc1cc(-c2cc3ccncc3c3nc(OCC[N+](C)(C)[O-])c4cnccc4c23)cc(OC)c1OC` [P8-D6 N-oxide], the “formation of metabolite from P8-D6 by recombinant enzymes” value at human FMO3 is listed as “only with FMO3”.
Usually IC50 stands for the concentration needed to halve the response being measured. Take `COc1cc(-c2cc3ccncc3c3nc(OCCN(C)C)c4cnccc4c23)cc(OC)c1OC` [P8-D6, 6-(N,N-dimethyl-2-aminoethoxy)-11-(3,4,5-trimethoxyphenyl)-pyrido[3,4-c][1,9]-phenanthroline]: the IC50 on CYP2B6 (HLM) was more than 1000 µM; on CYP2B6 (recombinant CYP isoenzyme), more than 1000 µM; against CYP2C8 (HLM), 246 µM; on CYP2C8 (recombinant CYP isoenzyme), 282 µM.
